From patent US9040545B2, “Heterocyclyl pyrazolopyrimidine analogues as selective JAK inhibitors” (Cellzome Limited, priority 2010, dated 2015)

Biological target: T1, Aurora A (Homo sapiens, UniProt O14965)
T1 construct: cell lysates from Jurkat cells (ATCC TIB-152) used; endogenous in cells; host or cells: Jurkat cells (ATCC TIB-152), treated with pervanadate
T1 sequence (O14965 1-403): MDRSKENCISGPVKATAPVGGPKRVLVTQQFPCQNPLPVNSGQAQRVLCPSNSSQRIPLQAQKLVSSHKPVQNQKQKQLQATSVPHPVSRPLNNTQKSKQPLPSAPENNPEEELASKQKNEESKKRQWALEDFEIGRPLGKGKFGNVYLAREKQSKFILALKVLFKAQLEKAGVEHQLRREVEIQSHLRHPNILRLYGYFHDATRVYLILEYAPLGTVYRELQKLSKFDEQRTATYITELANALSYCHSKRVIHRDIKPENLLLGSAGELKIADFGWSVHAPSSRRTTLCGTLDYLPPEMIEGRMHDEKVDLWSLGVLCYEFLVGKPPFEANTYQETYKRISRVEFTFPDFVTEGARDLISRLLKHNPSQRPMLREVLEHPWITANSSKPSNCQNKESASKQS
Assay: Kinobeads assay, Aurora A
Assay type: binding
Conditions: for IC50: lysate of pervanadate-treated Jurkat cells, read-out: Inhibition values (IC50) Aur A
Description: The compounds of the present invention as described in the previous examples were tested in a Kinobeads™ assay as described for ZAP-70 (WO-A 2007/137867). Briefly, test compounds (at various concentrations) and the affinity matrix with the immobilized aminopyrido-pyrimidine ligand 24 were added to cell lysate aliquots and allowed to bind to the proteins in the lysate sample. After the incubation time the beads with captured proteins were separated from the lysate. Bound proteins were then eluted and the presence of JAK2 and JAK3 was detected and quantified using specific antibodies in a dot blot procedure and the Odyssey infrared detection system. Dose response curves for individual kinases were generated and IC50 values calculated. Kinobeads™ assays for ZAP-70 (WO-A 2007/137867) and for kinase selectivity profiling (WO-A 2006/134056) have been previously described.
The affinity matrix was washed two times with 15 mL of 1×DP buffer containing 0.2% NP40 (IGEPAL® CA-630, Sigma, #I3021) and then resuspended in 1×DP buffer containing 0.2% NP40 (3% beads slurry).
5×DP buffer 250 mM Tris-HCl pH 7.4, 25% Glycerol, 7.5 mM MgCl2, 750 mM NaCl, 5 mM Na3VO4; filter the 5×DP buffer through a 0.22 μm filter and store in aliquots at −80° C. The 5×DP buffer is diluted with H2O to 1×DP buffer containing 1 mM DTT and 25 mM NaF.
Stock solutions of test compounds were prepared in DMSO. In a 96 well plate 30 μL solution of diluted test compounds at 5 mM in DMSO were prepared. Starting with this solution a 1:3 dilution series (9 steps) was prepared. For control experiments (no test compound) a buffer containing 2% DMSO was used.
Cell lysate (approximately 50 mg protein per plate) was thawed in a water bath at room temperature and then stored on ice. To the thawed cell lysate 1×DP 0.8% NP40 buffer containing protease inhibitors (1 tablet for 25 mL buffer; EDTA-free protease inhibitor cocktail; Roche Diagnostics 1873580) was added in order to reach a final protein concentration of 10 mg/mL total protein. The diluted cell lysate was stored on ice. Mixed Molt4/Ramos lysate was prepared by combining one volume of Molt4 lysate and two volumes of Ramos lysate (ratio 1:2).
To a 96 well filter plate (Multiscreen HTS, BV Filter Plates, Millipore #MSBVN1250) were added per well: 100 μL affinity matrix (3% beads slurry), 3 μL of compound solution, and 50 μL of diluted lysate. Plates were sealed and incubated for 3 hours in a cold room on a plate shaker (Heidolph tiramax 1000) at 750 rpm. Afterwards the plate was washed 3 times with 230 μL washing buffer (1×DP 0.4% NP40). The filter plate was placed on top of a collection 1 plate (Greiner bio-one, PP-microplate 96 well V-shape, 65120) and the beads were then eluted with 20 μL of sample buffer (100 mM Tris, pH 7.4, 4% SDS, 0.00025% bromophenol blue, 20% glycerol, 50 mM DTT). The eluate was frozen quickly at −80° C. and stored at −20° C.
The kinases in the eluates were detected and quantified by spotting on nitrocellulose membranes and using a first antibody directed against the kinase of interest and a fluorescently labelled secondary antibody (anti-rabbit IRDye™ antibody 800 (Licor, #926-32211). The Odyssey Infrared Imaging system from LI-COR Biosciences (Lincoln, Nebr., USA) was operated according to instructions provided by the manufacturer (Schutz-Geschwendener et al, 2004. Quantitative, two-color Western blot detection with infrared fluorescence. Published May 2004 by LI-COR Biosciences, www.licor.com).
After spotting of the eluates the nitrocellulose membrane (BioTrace NT; PALL, #BTNT30R) was first blocked by incubation with Odyssey blocking buffer (LICOR, 927-40000) for 1 hour at room temperature. Blocked membranes were then incubated for 16 hours at the temperature shown in Table 5 with the first antibody diluted in Odyssey blocking buffer (LICOR #927-40000). Afterwards the membrane was washed twice for 10 minutes with PBS buffer containing 0.2% Tween 20 at room temperature. […]

Structure (SMILES) | JAK3/AurA Fold Selectivity | IC50 [nM]
C[C@@H]1COCCN1c1cccc(Cn2ncc3cnc(Nc4cnn(C)c4)nc32)n1 [Example 1, (R)—N-(1-Methyl-1H-pyrazol-4-yl)-1-((6-(3-methylmorpholino)pyridin-2-yl)methyl)-1H-pyrazolo[3,4-d]pyrimidin-6-amine] | 3-10 Fold | 100 to 1000
Cn1cc(Nc2ncc3cnn(Cc4cccc(N5CCOCC5)c4)c3n2)cn1 [Example 2, N-(1-Methyl-1H-pyrazol-4-yl)-1-(3-morpholinobenzyl)-1H-pyrazolo[3,4-d]pyrimidin-6-amine] | 10-50 Fold | 100 to 1000
Cn1cc(Nc2ncc3cnn(Cc4cccc(N5CCOCC5)n4)c3n2)cn1 [Example 3, N-(1-Methyl-1H-pyrazol-4-yl)-1-((6-morpholinopyridin-2-yl)methyl)-1H-pyrazolo[3,4-d]pyrimidin-6-amine] | 10-50 Fold | 100 to 1000
CN(C)CCCn1cc(Nc2ncc3cnn(Cc4cccc(N5CCOCC5)c4)c3n2)cn1 [Example 4, N-(1-(3-(Dimethylamino)propyl)-1H-pyrazol-4-yl)-1-(3-morpholinobenzyl)-1H-pyrazolo[3,4-d]pyrimidin-6-amine] | >50 Fold | 1000 to 10000
OCCn1cc(Nc2ncc3cnn(Cc4cccc(N5CCOCC5)c4)c3n2)cn1 [Example 5, 2-(4-((1-(3-Morpholinobenzyl)-1H-pyrazolo[3,4-d]pyrimidin-6-yl)amino)-1H-pyrazol-1-yl)ethanol] | 10-50 Fold | 100 to 1000
Cn1cc(Nc2ncc3cnn(Cc4cccc(C(=O)N5CCOCC5)c4)c3n2)cn1 [Example 6, (3-((6-((1-Methyl-1H-pyrazol-4-yl)amino)-1H-pyrazolo[3,4-d]pyrimidin-1-yl)methyl)phenyl)(morpholino)methanone] | 10-50 Fold | 100 to 1000
Cn1cc(Nc2ncc3cnn(Cc4cccc(CN5CCOCC5)c4)c3n2)cn1 [Example 7, N-(1-Methyl-1H-pyrazol-4-yl)-1-(3-(morpholinomethyl)benzyl)-1H-pyrazolo[3,4-d]pyrimidin-6-amine] | 10-50 Fold | 100 to 1000
Cn1cc(Nc2ncc3cnn(Cc4cccc(N5CCCCC5)c4)c3n2)cn1 [Example 8, N-(1-Methyl-1H-pyrazol-4-yl)-1-(3-(piperidin-1-yl)benzyl)-1H-pyrazolo[3,4-d]pyrimidin-6-amine] | 10-50 Fold | 1000 to 10000
Cn1cc(Nc2ncc3cnn(Cc4cccc(C5CCOCC5)c4)c3n2)cn1 [Example 9, N-(1-Methyl-1H-pyrazol-4-yl)-1-(3-(tetrahydro-2H-pyran-4-yl)benzyl)-1H-pyrazolo[3,4-d]pyrimidin-6-amine] | 10-50 Fold | 100 to 1000
CN1CCN(c2cccc(Cn3ncc4cnc(Nc5cnn(C)c5)nc43)c2)CC1 [Example 10, N-(1-Methyl-1H-pyrazol-4-yl)-1-(3-(4-methylpiperazin-1-yl)benzyl)-1H-pyrazolo[3,4-d]pyrimidin-6-amine] | 3-10 Fold | 100 to 1000
Cc1c(Cn2ncc3cnc(Nc4cnn(C)c4)nc32)cccc1N1CCOCC1 [Example 11, N-(1-Methyl-1H-pyrazol-4-yl)-1-(2-methyl-3-morpholinobenzyl)-1H-pyrazolo[3,4-d]pyrimidin-6-amine] | 10-50 Fold | 100 to 1000
CNC(=O)Cn1cc(Nc2ncc3cnn(Cc4cccc(N5CCOCC5)c4)c3n2)cn1 [Example 12, N-Methyl-2-(4-((1-(3-morpholinobenzyl)-1H-pyrazolo[3,4-d]pyrimidin-6-yl)amino)-1H-pyrazol-1-yl)acetamide] | 3-10 Fold | 100 to 1000
CCOC(=O)C1CCCN(c2cccc(Cn3ncc4cnc(Nc5cnn(C)c5)nc43)c2)C1 (stereo not drawn) [Example 13, Ethyl 1-(3-((6-((1-methyl-1H-pyrazol-4-yl)amino)-1H-pyrazolo[3,4-d]pyrimidin-1-yl)methyl)phenyl)piperidine-3-carboxylate] | 3-10 Fold | 1000 to 10000
NC(=O)CCn1cc(Nc2ncc3cnn(Cc4cccc(N5CCOCC5)c4)c3n2)cn1 [Example 14, 3-(4-((1-(3-Morpholinobenzyl)-1H-pyrazolo[3,4-d]pyrimidin-6-yl)amino)-1H-pyrazol-1-yl)propanamide] | 10-50 Fold | 100 to 1000
Cn1cc(Nc2ncc3cnn(Cc4cc(N5CCOCC5)ccc4F)c3n2)cn1 [Example 15, 1-(2-Fluoro-5-morpholinobenzyl)-N-(1-methyl-1H-pyrazol-4-yl)-1H-pyrazolo[3,4-d]pyrimidin-6-amine] | 10-50 Fold | 1000 to 10000
CN(C)C(=O)CCn1cc(Nc2ncc3cnn(Cc4cccc(N5CCOCC5)c4)c3n2)cn1 [Example 16, N,N-Dimethyl-3-(4-((1-(3-morpholinobenzyl)-1H-pyrazolo[3,4-d]pyrimidin-6-yl)amino)-1H-pyrazol-1-yl)propanamide] | 10-50 Fold | 100 to 1000
Cn1cc(Nc2ncc3cnn(Cc4c(F)c(F)cc(N5CCOCC5)c4F)c3n2)cn1 [Example 17, N-(1-Methyl-1H-pyrazol-4-yl)-1-(2,3,6-trifluoro-5-morpholinobenzyl)-1H-pyrazolo[3,4-d]pyrimidin-6-amine] | >50 Fold | 1000 to 10000
OCCCn1cc(Nc2ncc3cnn(Cc4cccc(N5CCOCC5)c4)c3n2)cn1 [Example 18, 3-(4-((1-(3-Morpholinobenzyl)-1H-pyrazolo[3,4-d]pyrimidin-6-yl)amino)-1H-pyrazol-1-yl)propan-1-ol] | 10-50 Fold | 100 to 1000
Cn1cc(Nc2ncc3cnn(Cc4cccc(N5CCC(F)(F)CC5)c4)c3n2)cn1 [Example 19, 1-(3-(4,4-Difluoropiperidin-1-yl)benzyl)-N-(1-methyl-1H-pyrazol-4-yl)-1H-pyrazolo[3,4-d]pyrimidin-6-amine] | 10-50 Fold | 1000 to 10000
O=C(CCn1cc(Nc2ncc3cnn(Cc4cccc(N5CCOCC5)c4)c3n2)cn1)N1CCCCC1 [Example 20, 3-(4-((1-(3-Morpholinobenzyl)-1H-pyrazolo[3,4-d]pyrimidin-6-yl)amino)-1H-pyrazol-1-yl)-1-(piperidin-1-yl)propan-1-one] | 10-50 Fold | 100 to 1000
Cn1cc(Nc2ncc3cnn(Cc4cccc(N5CCOCC5)c4F)c3n2)cn1 [Example 21, 1-(2-Fluoro-3-morpholinobenzyl)-N-(1-methyl-1H-pyrazol-4-yl)-1H-pyrazolo[3,4-d]pyrimidin-6-amine] | >50 Fold | 100 to 1000
